Assays:
[1] = system: patients with partial epilepsy; assay: MADRS, open label extension of phase 3 study, Trial 2; type: in vivo, human
Method: During a further open label extension of a phase 3 study with ESL, the effect on depressive symptoms in patients taking at least one other anti-epileptic drug was assessed using the Montgomery Åsberg Depression Rating Scale (MADRS) at the end of treatment (after one year or after early discontinuation) and results compared with those at baseline. Patients were treated with ESL dosages in the range of 400-1500 mg, the majority being treated once daily with 800 mg ESL.

[2] = system: patients with partial epilepsy; assay: MADRS, open label extension of phase 3 study, Trial 1; type: in vivo, human
Method: During an open label extension of a phase 3 study with ESL, the effect on depressive symptoms in patients taking at least one other anti-epileptic drug was assessed using the Montgomery Åsberg Depression Rating Scale (MADRS) at the end of treatment (after one year or after early discontinuation) and results compared with those at baseline. Patients were treated with ESL dosages in the range of 400-1500 mg, the majority being treated once daily with 800 mg ESL.

[3] = system: peripheral nerve filaments of CCI mice; assay: Ectopic discharge of peripheral nerve filaments in CCI mice (electrophysiological recording); type: in vivo; details: for ectopic discharge firing rate: 5 preparations
Text: Adult male BL CB F1 mice, weighing 25-30 g at the time of surgery and 26-38 g at the time of electrophysiological experiments, were used. The baseline paw withdrawal threshold (PWT) was examined using a series of graduated von Frey hairs (see below) on 3 consecutive days before surgery and re-assessed on the 7th and on the 14th days after surgery, before electrophysiological recording. The animals were killed by an overdose of pentobarbitone on completion of the study. The chronic constriction injury (CCI) model was prepared following the standard protocols described previously (Bennett and Xie, 1988). Mice were anaesthetised and the lateral side of the left thigh was shaved and sterilized with 75% ethanol. A small incision of approximately 0.5 cm was made parallel to the femur. The muscle was carefully separated to expose the sciatic nerve. Three loose ligatures were placed on the sciatic nerve with 5-0 suture silk thread at approximately 1 mm intervals. The wound was closed in layers with suture silk 4-0 and the animals were placed in a recovery chamber with the temperature controlled and set at 30° C. A dose of amoxicillin (0.02 mL, 3 mg) was routinely injected i.p. after surgery to prevent infection. The animals were returned to their home cages after complete recovery of consciousness and freedom of movement. For the first 2 days after surgery, the animals were closely monitored at least twice daily and subsequently, at least once daily until compound testing. Each animal was placed in a perspex cage on a metal mesh. A series of von Frey filaments (0.07 g, 0.16 g, 0.4 g, 0.6 g, 1.0 g) were applied to the plantar surface of the hind-paw, from below. The filaments were applied in ascending order (starting with the lowest force 0.07 g) to both ipsilateral and contralateral hind-paws. Each filament was applied 10 times with a protocol of one second on, one second off. The PWT was defined as being the lowest force required to elicit at least 5 paw withdrawal responses out of 10 trials. The baseline PWT was tested for 3 consecutive days before surgery and re-assessed on the 7th and 14th days after surgery to monitor the development of mechanical allodynia. Only those mice showing significant mechanical allodynia (PWT≦0.2 g) were selected for subsequent electrophysiological experiments. The mice were re-anaesthetised and the sciatic nerve was exposed via a dorsal incision on the hind-limb. The skin was secured (stitched) to a metal O-ring to form an oil pool for recording nerve activity. A reference electrode was connected to the metal O-ring to form a closed circuit with the nerve recording electrode. To record ectopic discharge generated from the intact animal, under a microscope, the small bundles of sural nerve (distal to the ligated area) were repeatedly teased and looped onto a unipolar silver electrode for examination. To facilitate the recording of ectopic discharge generated from the neuroma (ligated area) or from the DRG, the sciatic nerve was separated carefully from the surrounding connective tissues, sectioned at a more proximal site leaving the injured area intact or near the injured area leaving the more proximal part intact. A small bundle of nerve filaments were teased from the sciatic nerve from either the distal or proximal cut end of the sciatic nerve, to record neuroma-generated ectopic discharge, or from the proximal cut end to record DRG-generated ectopic discharge. The filament was looped on to a unipolar silver wire recording electrode with an indifference electrode connected to the connective tissues nearby, allowing the spontaneous activity generated from either the ligated area (sensitized axons) or from DRG (somata) to be recorded. The electrical signals were then recorded through a CED micro-1401 interface to a PC for later off-line analysis. Recording from a fibre with spontaneous activity was undertaken for at least 10 min for control and 40 min after either vehicle or ESL administration. […]

[4] = long-term open-label adjunctive therapy, partial epilepsy

CC(=O)O[C@H]1Cc2ccccc2N(C(N)=O)c2ccccc21 [ESL, S-(−)-10-acetoxy-10,11-dihydro-5H-dibenz/b,f/azepine-5-carboxamide]
MADRS apparent sadness, mean relative improvement ([1]; ITT population (264 patients)): 34%
MADRS concentration difficulties, mean relative improvement ([1]; ITT population (264 patients)): 30%
MADRS inability to feel, mean relative improvement ([1]; ITT population (264 patients)): 38%
MADRS inner tension, mean relative improvement ([1]; ITT population (264 patients)): 31%
MADRS lassitude, mean relative improvement ([1]; ITT population (264 patients)): 38%
MADRS pessimistic thoughts, mean relative improvement ([1]; ITT population (264 patients)): 26%
MADRS reduced appetite, mean relative improvement ([1]; ITT population (264 patients)): 57%
MADRS reduced sleep, mean relative improvement ([1]; ITT population (264 patients)): 48%
MADRS reported sadness, mean relative improvement ([1]; ITT population (264 patients)): 40%
MADRS suicidal thoughts, mean relative improvement ([1]; ITT population (264 patients)): 56%
MADRS apparent sadness, mean relative improvement ([1]; PP population (232 patients)): 38%
MADRS concentration difficulties, mean relative improvement ([1]; PP population (232 patients)): 33%
MADRS inability to feel, mean relative improvement ([1]; PP population (232 patients)): 35%
MADRS inner tension, mean relative improvement ([1]; PP population (232 patients)): 34%
MADRS lassitude, mean relative improvement ([1]; PP population (232 patients)): 39%
MADRS pessimistic thoughts, mean relative improvement ([1]; PP population (232 patients)): 31%
MADRS reduced appetite, mean relative improvement ([1]; PP population (232 patients)): 62%
MADRS reduced sleep, mean relative improvement ([1]; PP population (232 patients)): 53%
MADRS reported sadness, mean relative improvement ([1]; PP population (232 patients)): 41%
MADRS suicidal thoughts, mean relative improvement ([1]; PP population (232 patients)): 60%
depressive mood as assessed by MADRS, change from baseline [1, 4]: statistically significant improvement from baseline
MADRS total score at end of treatment ([2]; ITT population (166 patients), baseline 10.5, ESL 400-1500 mg, mostly 800 mg once daily, one year or early discontinuation, p<0.05): 7.8
depressive symptoms (MADRS), change from baseline [2, 4]: Statistically and clinically significant improvement from baseline
ectopic discharge, % of control ([3]; DRG origin, ESL 100 mg/kg i.p., P<0.05 vs vehicle): 58.43±13.21 % of control
ectopic discharge average firing rate ([3]; DRG origin, ESL 100 mg/kg i.p., control 514.3±141.0, 6 preparations): 274.4±117.1 imps/min
ectopic discharge, % of control level ([3]; intact CCI mice, ESL 100 mg/kg ip, 30-35 min after injection, P<0.001 vs control): 26.6±10.6 % of control
ectopic discharge firing rate ([3]; intact CCI mice, ESL 100 mg/kg ip, 30-35 min after injection, control 2048.0±391.6, mean±SEM): 699.8±339.7 imps/min
ectopic discharge firing rate ([3]; neuroma origin (sciatic nerve sectioned proximally), ESL 100 mg/kg ip, 30 min after injection, control 1390.6±378.5): 643.5±249.2 imps/min
ectopic discharge, % of control levels ([3]; neuroma origin, ESL 100 mg/kg ip, 30 min after injection, P<0.01): 36.5±12.3 % of control

Source: US9855277B2, “Use of 5H-dibenz/b,f/azepine-5-carboxamide derivatives for treating fibromyalgia” (BIAL—PORTELA & CA, S.A., priority 2009, dated 2018)
